For 14 molecules, IC50 and inhibition results are on record in patent US20100298302A1, “NOVEL PROTEIN KINASE MODULATORS” (priority 2009, published 2010).

Molecules are shown by their SMILES. Read-outs that look alike come from different tables or passages of the source.

One assay has as its target recombinant human PIM2 (Homo sapiens, UniProt Q9P1W9). Nature of the assay: PIM-2 kinase assay. The format is biochemical. Here is the method:
Test compounds dissolved and diluted in DMSO (2 μl) were added to a reaction mixture comprising 10 μl of 5× Reaction Buffer (40 mM MOPS pH 7.0, 5 mM EDTA), 10 μl of recombinant human PIM2 solution (4 ng PIM-2 dissolved in dilution buffer (20 mM MOPS pH 7.0; EDTA 1 mM; 5% Glycerol; 0.01% Brij 35; […]; […] 2-mercaptoethanol; 1 mg/ml BSA)) and 8 ul of water. Reactions were initiated by the addition of 10 ul of ATP Solution ([…] (15 mM MgCl2; 75 uM ATP) 1% ([γ-33P]ATP: Stock 1 mCi/100 μl; 3000 Ci/mmol (Perkin Elmer)) and 10 ul of substrate peptide solution (RSRSSYPAGT, dissolved in water at a concentration of 1 mM), Reactions were maintained for 10 min at 30° C. The reactions were quenched with 100 ul of 0.75% Phosphoric acid, then transferred to and filtered through a Phosphocellulose filter plate (Millipore, MSPH-N6B-50). After washing each well 4 times with 0.75% Phosphoric acid, scintillation fluid (20 uL) was added to each well and the residual radioactivity was measured using a Wallac luminescence counter.

In another assay the target is recombinant PIM-1 (Homo sapiens, UniProt P11309). Briefly: PIM-1 kinase assay. The format is biochemical. The following applies: for inhibition at 0.5 µM: 500 nM compound, read-out: PIM1: % inh 500 nM. Here is the method:
The following procedure was used to assay the PIM-1 kinase activity of compounds of the invention. Other methods for assaying PIM-1 and other PIM kinases, as well as methods to assay for activity against various kinases known in the art.
In a final reaction volume of 50 ul, recombinant PIM-1 (1 ng) was incubated with 12 mM MOPS pH 7.0, 0.4 mM EDTA, glycerol 1%, brij 35 0.002%, 2-mercaptoethanol 0.02%, BSA 0.2 mg/ml, 100 uM KKRNRTLTK, 10 mM MgAcetate, 15 uM ATP, [γ-^33P-ATP] (specific activity approx. 500 cpm/pmol), DMSO 4% and test inhibitor compound at the required concentration. The reaction was initiated by the addition of the Magnesium ATP mixture. After 40 min incubation at 23° C., the reactions were quenched by the addition of 100 ul 0.75% Phosphoric acid, and the labeled peptide collected by filtration through a phosphocellulose filter plate. The plate was washed 4 times with 0.075% phosphoric acid (100 ul per well) and then, after the addition of scintillation fluid (20 ul per well), the counts were measured by a scintillation counter.

A further assay deals with T1, recombinant human CK2 (Homo sapiens, UniProt P68400).
T1 construct: purchased Upstate
T1 sequence (P68400 whole entry): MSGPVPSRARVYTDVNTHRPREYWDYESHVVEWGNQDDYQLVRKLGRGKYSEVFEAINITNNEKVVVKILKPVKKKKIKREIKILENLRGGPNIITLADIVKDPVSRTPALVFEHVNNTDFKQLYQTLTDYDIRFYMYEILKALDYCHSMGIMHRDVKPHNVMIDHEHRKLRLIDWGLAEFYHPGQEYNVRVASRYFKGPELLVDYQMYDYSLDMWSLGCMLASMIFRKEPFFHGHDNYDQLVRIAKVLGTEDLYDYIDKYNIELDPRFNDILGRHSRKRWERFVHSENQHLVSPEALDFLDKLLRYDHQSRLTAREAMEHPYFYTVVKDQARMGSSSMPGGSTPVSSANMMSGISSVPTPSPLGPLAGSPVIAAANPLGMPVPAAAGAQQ
T1 sequence (P67870 whole entry partner): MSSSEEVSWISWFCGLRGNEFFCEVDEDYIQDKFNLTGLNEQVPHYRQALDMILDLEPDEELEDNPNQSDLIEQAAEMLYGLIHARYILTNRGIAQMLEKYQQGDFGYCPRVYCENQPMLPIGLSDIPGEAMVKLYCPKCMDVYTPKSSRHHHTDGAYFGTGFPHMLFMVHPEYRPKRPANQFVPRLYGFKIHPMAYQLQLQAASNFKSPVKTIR
Nature of the assay: cell-free CK2 assay. Type of assay: biochemical. Here is the method:
Modulatory activity of compounds described herein was assessed in vitro in cell-free CK2 assays by the following method.
Test compounds in aqueous solution were added at a volume of 10 microliters, to a reaction mixture comprising 10 microliters Assay Dilution Buffer (ADB; 20 mM MOPS, pH 7.2, 25 mM beta-glycerolphosphate, 5 mM EGTA, 1 mM sodium orthovanadate and 1 mM dithiothreitol), 10 microliters of substrate peptide (RRRDDDSDDD, dissolved in ADB at a concentration of 1 mM), 10 microliters of recombinant human CK2 (25 ng dissolved in ADB; Upstate). Reactions were initiated by the addition of 10 microliters of ATP Solution (90% 75 mM MgCl2, 75 micromolar ATP dissolved in ADB; 10% [γ-^33P]ATP (stock 1 mCi/100 μl; 3000 Ci/mmol (Perkin Elmer) and maintained for 10 minutes at 30 degrees C. The reactions were quenched with 100 microliters of 0.75% phosphoric acid, then transferred to and filtered through a phosphocellulose filter plate (Millipore). After washing each well 5 times with 0.75% phosphoric acid, the plate was dried under vacuum for 5 min and, following the addition of 15 ul of scintilation fluid to each well, the residual radioactivity was measured using a Wallac luminescence counter.

Assay [1] deals with MiaPaca human pancreatic carcinoma cells. Briefly: Alamar Blue cell proliferation assay, MiaPaCa. The format is cell-based. The following applies: MIA PaCa-2. Here is the method: (§1) A representative cell-proliferation assay protocol using Alamar Blue dye (stored at 4° C., use 20 ul per well) is described hereafter.
(§2) a. Split and trypsinize cells.
(§3) b. Count cells using hemocytometer.
(§4) c. Plate 4,000-5,000 cells per well in 100 μl of medium and seed into a 96-well plate according to the following plate layout. Add cell culture medium only to wells B10 to B12. Wells B1 to B9 have cells but no compound added.
(§5) d. Add 100 μl of 2× drug dilution to each well in a concentration shown in the plate layout above. At the same time, add 100 μl of media into the control wells (wells B10 to B12). Total volume is 200 μl/well.
(§6) e. Incubate four (4) days at 37° C., 5% CO2 in a humidified incubator.
(§7) f. Add 20 μl Alamar Blue reagent to each well.
(§8) g. Incubate for four (4) hours at 37° C., 5% CO2 in a humidified incubator.
(§9) h. Record fluorescence at an excitation wavelength of 544 nm and emission wavelength of 590 nm using a microplate reader.
(§10) In the assays, cells are cultured with a test compound for approximately four days, the dye is then added to the cells and fluorescence of […] dye is detected after approximately four hours. Different types of cells can be utilized in the assays (e.g., HCT-116 human colorectal carcinoma cells, PC-3 human prostatic cancer cells, MDA-MB231 human breast cancer cells, K-562 human chronic myelogenous leukemia (CML) cells, MiaPaca human pancreatic carcinoma cells, MV-4 human acute myeloid leukemia cells, and BxPC3 human pancreatic adenocarcinoma cells).
In general terms: Alamar Blue is a resazurin reagent that responds to reducing activity.

For assay [2], the system named is K-562 human chronic myelogenous leukemia (CML) cells. Nature of the assay: Alamar Blue cell proliferation assay, K-562. The format is cell-based. The following applies: K562, Table 4. Here is the method:
as §1, §2, §3, §4, §5, §6, §7, §8, §9, §10

In assay [3] the test system is PC-3 human prostatic cancer cells. Nature of the assay: Alamar Blue cell proliferation assay, PC3. The format is cell-based. Here is the method:
as §1, §2, §3, §4, §5, §6, §7, §8, §9, §10

A further assay relates to MV-4-11. Briefly: Alamar Blue cell proliferation assay, MV-4-11. Type of assay: cell-based. The following applies: Homo sapiens, MV4-11; Table 4. Here is the method:
as §1, §2, §3, §4, §5, §6, §7, §8, §9, §10

Where [4] appears, read: 15 μM ATP, read-out: PIM1: IC50 (15 μM ATP).

Chain of recombinant PIM-1 (P11309 whole entry): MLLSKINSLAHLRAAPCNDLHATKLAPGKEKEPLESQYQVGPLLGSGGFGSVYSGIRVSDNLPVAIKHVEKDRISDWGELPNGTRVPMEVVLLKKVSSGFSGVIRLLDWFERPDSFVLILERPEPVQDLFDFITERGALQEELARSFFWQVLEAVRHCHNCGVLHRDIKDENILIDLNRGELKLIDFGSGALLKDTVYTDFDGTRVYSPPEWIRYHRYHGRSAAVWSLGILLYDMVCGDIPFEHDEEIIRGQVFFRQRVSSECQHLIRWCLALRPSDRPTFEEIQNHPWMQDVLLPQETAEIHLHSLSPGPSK
Chain of recombinant human PIM2 (Q9P1W9 whole entry): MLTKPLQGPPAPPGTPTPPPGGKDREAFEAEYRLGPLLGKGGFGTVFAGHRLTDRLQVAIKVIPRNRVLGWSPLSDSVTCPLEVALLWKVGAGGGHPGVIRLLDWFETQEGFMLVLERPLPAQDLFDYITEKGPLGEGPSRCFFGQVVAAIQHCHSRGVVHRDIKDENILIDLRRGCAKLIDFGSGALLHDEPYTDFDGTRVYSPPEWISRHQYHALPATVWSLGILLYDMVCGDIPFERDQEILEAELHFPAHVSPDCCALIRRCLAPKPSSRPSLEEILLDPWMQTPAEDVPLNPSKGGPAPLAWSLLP

As to `CC(C)(C)OC(=O)OCc1cccc2c1nc(N(C(=O)OC(C)(C)C)c1ccccc1F)c1cccn12`, the IC50 is more than 2.5 µM at recombinant human PIM2; more than 2.5 µM on recombinant PIM-1 (Table 5, read-out: PIM1 IC50); more than 5 µM on recombinant human CK2.
In the case of `NC(=O)c1cccc2c1nc(Nc1ccccc1Cl)c1cccn12`, the IC50 is less than 1 µM on recombinant human PIM2; less than 0.1 µM at recombinant PIM-1 (Table 5, read-out: PIM1 IC50); less than 1 µM on recombinant human CK2.
As to `Fc1cccc(Nc2nc3cc(-c4nnn[nH]4)ccc3n3cccc23)c1`, the IC50 in assay [1] is more than 10 µM; in assay [2], more than 10 µM; in assay [3], more than 10 µM; on recombinant PIM-1 (setting [4]), 0.29 µM; in the assay with MV-4-11 it was more than 10 µM. In addition, the inhibition at 0.5 µM on recombinant PIM-1 was determined as 70%.
Turning to `FC(F)(F)c1cccc(Nc2nc3cc(-c4nnn[nH]4)ccc3n3cccc23)c1`, the IC50 in assay [1] is more than 10 µM; in assay [2], more than 10 µM; in assay [3], more than 10 µM; in the assay with MV-4-11, 6.58 µM. The inhibition at 0.5 µM on recombinant PIM-1 worked out at 45.2%.
Take `Brc1cccc(Nc2nc3c(-c4nnc[nH]4)cccc3n3cccc23)c1`: the IC50 on recombinant human PIM2 was less than 0.1 µM; at recombinant PIM-1 (Table 5, read-out: PIM1 IC50) it was less than 0.1 µM; on recombinant human CK2, less than 0.1 µM.
On to `CCOC(=O)c1cccc2c1nc(Nc1ccccc1F)c1cccn12`, for which the half-maximal inhibitory concentration (IC50) on recombinant human PIM2 was more than 2.5 µM; on recombinant PIM-1 (Table 5, read-out: PIM1 IC50), more than 2.5 µM; at recombinant human CK2, more than 5 µM.
As for `NC(=O)c1cccc2c1[nH]c(=O)c1cccn12`, the IC50 at recombinant human PIM2 was more than 2.5 µM; on recombinant PIM-1 (Table 5, read-out: PIM1 IC50), more than 2.5 µM; at recombinant human CK2, more than 5 µM.
On to `O=C(O)c1ccc2c(c1)nc(NCCn1cccc1)c1cccn12`, for which the IC50 was more than 10 µM in assay [1]; more than 10 µM in assay [2]; more than 10 µM in assay [3]; 0.554 µM at recombinant PIM-1 (setting [4]); more than 10 µM in the assay on MV-4-11. Also, the inhibition at 0.5 µM at recombinant PIM-1 is 50.1%.
For the molecule `O=C(O)c1ccc2c(c1)nc(Nc1ccc3ncccc3c1)c1cccn12`, the IC50 in assay [1] is more than 10 µM; in assay [2] it was more than 10 µM; at recombinant PIM-1 (setting [4]) it was 0.239 µM; in the assay on MV-4-11, more than 10 µM. On recombinant PIM-1, the inhibition at 0.5 µM was 43.2%.
For the molecule `O=C(O)c1cccc2c1nc(Nc1ccccc1F)c1cccn12`, the IC50 on recombinant human PIM2 was less than 1 µM; at recombinant PIM-1 (Table 5, read-out: PIM1 IC50) it was less than 1 µM; on recombinant human CK2, less than 1 µM.
Turning to `c1cc(-c2nnc[nH]2)c2nc(NCC3CC3)c3cccn3c2c1`, the IC50 at recombinant human PIM2 is less than 1 µM; at recombinant PIM-1 (Table 5, read-out: PIM1 IC50), less than 0.1 µM; on recombinant human CK2 it was less than 5 µM.
On the same counts, the results for `O=C(O)c1cccc2c1[nH]c(=O)c1cccn12` are more than 2.5 µM, more than 2.5 µM and less than 5 µM.
Consider `FC(F)(F)CCNc1nc2c(-c3nnc[nH]3)cccc2n2cccc12`, for which the IC50 at recombinant human PIM2 is less than 1 µM; on recombinant PIM-1 (Table 5, read-out: PIM1 IC50) it was less than 0.1 µM; at recombinant human CK2, less than 5 µM.
In the same order, the values of `COc1ccc(Sc2nc3c(-c4nnc[nH]4)cccc3n3cccc23)cc1` are less than 5 µM, less than 0.1 µM and less than 0.1 µM.

In general, IC50 refers to the concentration needed to halve the response being measured.
